We go through 12 compounds from paper PMC7531004, “Discovery of gramicidin A analogues with altered activities by multidimensional screening of a one-bead-one-compound library” (Nature Communications, 2020).

Where a SMILES comes first, the peptide text is derived from it. [ ]: non-standard residue; d: D form. The star is where a group is joined. NHCH2CH2OH = OCCN*; For = O=C*

In data set [1] the test system is Streptococcus pyogenes SSI-9. Briefly: Antibacterial activity assay of bead-derived peptides (three concentrations). The data set is classed as cell-based. Details: key: +++: inhibition by the 640-fold diluted peptide solution; ++: inhibition by the 160-fold diluted solution; +: inhibition by the 40-fold diluted solution; -: no inhibition. The conditions noted are these: S. pyogenes, bead-derived peptide solution, three concentrations. In short, it runs like this:
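Growth inhibition scored visually as precipitated bacteria after 37 °C, 18 h incubation. Streptococcus pyogenes SSI-9 inoculum of 2 × 10^5 CFU in Ca2+/Mg2+-adjusted Mueller Hinton broth plus 5% laked horse blood; peptides tested at three levels: stock, 4-fold and 16-fold DMSO dilutions.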

Data set [2] deals with P388 mouse leukemia cells. The conditions noted are these: 92 h. In short, it runs like this: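 Peptide stocks diluted 250× in growth medium; P388 cells 1 × 10^4 cells/mL final; 37 °C, 5% CO2, 92 h. WST-1 + 1-methoxy PMS, 4 h, A415. Output: % viability.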
Data set [3] is described as follows: H+/Na+ transport assay of bead-derived peptides (one-point).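 Note: relative to parent gramicidin A activity set to 1.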 The data set is classed as biochemical. Also noted: key: relative activity; mean of two control wells = 1.00. The conditions noted are these: bead-derived peptide solution, EYPC/EYPG LUVs. In outline: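 Miniaturized 96-well format. LUVs with entrapped pyranine (1.0 mM) were exposed to peptide for 30 min at RT. Intensities were expressed relative to full lysis by Triton X-100 and no treatment, with control-well mean = 1.00.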

With `CNC(=O)C[C@@H](NC(=O)[C@@H](NC(=O)[C@H](NC(=O)[C@H](C)NC(=O)[C@@H](CC(C)C)NC(=O)[C@H](C)NC(=O)CNC(=O)[C@@H](NC=O)C(C)C)C(C)C)C(C)C)C(=O)N[C@@H](Cc1c[nH]c2ccccc12)C(=O)N[C@@H](C(=O)N[C@@H](Cc1c[nH]c2ccccc12)C(=O)N[C@H](CC(C)C)C(=O)N[C@@H](Cc1c[nH]c2ccccc12)C(=O)N[C@H](CC(C)C)C(=O)N[C@@H](Cc1c[nH]c2ccccc12)C(=O)NCCO)C(C)C` [compound 7808] (For-VGA[dL]A[dV]V[dD](NHMe)W[dV]W[dL]W[dL]W-NHCH2CH2OH), in data set [1], the antibacterial activity entry is on record as “-”. In addition, the cell viability/% in data set [2] is given as 100.0%. Further, the “H+/Na+ transport activity normalized against the value of 1 (1.00)” value (“H+/Na+ transport activity normalized” for short) in data set [3] is given as 1.21.
Turning to `CC(C)C[C@@H](NC(=O)[C@H](Cc1c[nH]c2ccccc12)NC(=O)[C@H](NC(=O)[C@@H](NC(=O)[C@H](NC(=O)[C@H](C)NC(=O)[C@H](NC(=O)[C@H](C)NC(=O)CNC(=O)[C@@H](NC=O)C(C)C)C(C)C)C(C)C)C(C)C)[C@H](C)O)C(=O)N[C@@H](Cc1c[nH]c2ccccc12)C(=O)N[C@@H](C(=O)N[C@@H](Cc1c[nH]c2ccccc12)C(=O)N[C@@H](C(=O)N[C@@H](Cc1c[nH]c2ccccc12)C(=O)NCCO)C(C)C)C(C)C` [compound 9910] (For-VGA[dV]A[dV]V[dT]W[dL]W[dV]W[dV]W-NHCH2CH2OH), the antibacterial activity result in data set [1] was “-”. This compound also yielded a cell viability/% in data set [2] of 100.0%. In data set [3], the “H+/Na+ transport activity normalized” value is recorded as 1.07.
On to `CNC(=O)C[C@@H](NC(=O)[C@@H](NC(=O)[C@H](NC(=O)[C@H](C)NC(=O)[C@H](NC(=O)[C@H](C)NC(=O)CNC(=O)[C@@H](NC=O)C(C)C)C(C)C)C(C)C)C(C)C)C(=O)N[C@@H](Cc1c[nH]c2ccccc12)C(=O)N[C@@H](C(=O)N[C@@H](Cc1c[nH]c2ccccc12)C(=O)N[C@H](CC(C)C)C(=O)N[C@@H](Cc1c[nH]c2ccccc12)C(=O)N[C@H](CC(C)C)C(=O)N[C@@H](Cc1c[nH]c2ccccc12)C(=O)NCCO)C(C)C` [compound 2898] (For-VGA[dV]A[dV]V[dD](NHMe)W[dV]W[dL]W[dL]W-NHCH2CH2OH), for which the antibacterial activity entry in data set [1] is recorded as “-”. This compound had a cell viability/% in data set [2] of 100.0%. In data set [3], the “H+/Na+ transport activity normalized” value turned out to be 1.13.
For `CNC(=O)C[C@@H](NC(=O)[C@@H](NC(=O)[C@H](NC(=O)[C@H](C)NC(=O)[C@@H](CC(C)C)NC(=O)[C@H](C)NC(=O)CNC(=O)[C@@H](NC=O)C(C)C)C(C)C)C(C)C)C(=O)N[C@@H](Cc1c[nH]c2ccccc12)C(=O)N[C@H](CC(C)C)C(=O)N[C@@H](Cc1c[nH]c2ccccc12)C(=O)N[C@@H](C(=O)N[C@@H](Cc1c[nH]c2ccccc12)C(=O)N[C@H](CC(C)C)C(=O)N[C@@H](Cc1c[nH]c2ccccc12)C(=O)NCCO)C(C)C` [compound 2881] (For-VGA[dL]A[dV]V[dD](NHMe)W[dL]W[dV]W[dL]W-NHCH2CH2OH), the antibacterial activity entry in data set [1] was “-”. This compound yielded a cell viability/% in data set [2] of 100.0%. Also, in data set [3], the “H+/Na+ transport activity normalized” value came out at 1.16.
For `CC(C)C[C@@H](NC(=O)[C@H](C)NC(=O)[C@H](NC(=O)[C@H](C)NC(=O)CNC(=O)[C@@H](NC=O)C(C)C)[C@H](C)O)C(=O)N[C@H](C(=O)N[C@H](CC(C)C)C(=O)N[C@@H](Cc1c[nH]c2ccccc12)C(=O)N[C@H](CC(C)C)C(=O)N[C@@H](Cc1c[nH]c2ccccc12)C(=O)N[C@@H](C(=O)N[C@@H](Cc1c[nH]c2ccccc12)C(=O)N[C@H](CC(C)C)C(=O)N[C@@H](Cc1c[nH]c2ccccc12)C(=O)NCCO)C(C)C)C(C)C` [compound 5329] (For-VGA[dT]A[dL]V[dL]W[dL]W[dV]W[dL]W-NHCH2CH2OH), in that order: “-”, 100.0% and 1.26.
For `CNC(=O)C[C@@H](NC(=O)[C@@H](NC(=O)[C@@H](CC(C)C)NC(=O)[C@H](C)NC(=O)[C@@H](CC(C)C)NC(=O)[C@H](C)NC(=O)CNC(=O)[C@@H](NC=O)C(C)C)C(C)C)C(=O)N[C@@H](Cc1c[nH]c2ccccc12)C(=O)N[C@H](CC(C)C)C(=O)N[C@@H](Cc1c[nH]c2ccccc12)C(=O)N[C@H](CC(C)C)C(=O)N[C@@H](Cc1c[nH]c2ccccc12)C(=O)N[C@H](CC(C)C)C(=O)N[C@@H](Cc1c[nH]c2ccccc12)C(=O)NCCO` [compound 2444] (For-VGA[dL]A[dL]V[dD](NHMe)W[dL]W[dL]W[dL]W-NHCH2CH2OH), the antibacterial activity result in data set [1] was “-”. Besides, the cell viability/% in data set [2] turned out to be 100.0%. Also, the “H+/Na+ transport activity normalized” value in data set [3] amounted to 1.32.
For the compound `CC(C)C[C@@H](NC(=O)[C@H](C)NC(=O)[C@H](NC(=O)[C@H](C)NC(=O)CNC(=O)[C@@H](NC=O)C(C)C)C(C)C)C(=O)N[C@H](C(=O)N[C@@H](C(=O)N[C@@H](Cc1c[nH]c2ccccc12)C(=O)N[C@@H](C(=O)N[C@@H](Cc1c[nH]c2ccccc12)C(=O)N[C@H](CC(C)C)C(=O)N[C@@H](Cc1c[nH]c2ccccc12)C(=O)N[C@@H](C(=O)N[C@@H](Cc1c[nH]c2ccccc12)C(=O)NCCO)[C@H](C)O)C(C)C)C(C)C)C(C)C` [compound 7393] (For-VGA[dV]A[dL]V[dV]W[dV]W[dL]W[dT]W-NHCH2CH2OH), the antibacterial activity entry in data set [1] is “-”. The cell viability/% in data set [2] worked out at 100.0%. The “H+/Na+ transport activity normalized” value in data set [3] came to 1.07.
With `CC(C)C[C@@H](NC(=O)[C@H](C)NC(=O)[C@H](NC(=O)[C@H](C)NC(=O)CNC(=O)[C@@H](NC=O)C(C)C)C(C)C)C(=O)N[C@H](C(=O)N[C@@H](C(=O)N[C@@H](Cc1c[nH]c2ccccc12)C(=O)N[C@@H](C(=O)N[C@@H](Cc1c[nH]c2ccccc12)C(=O)N[C@H](CC(C)C)C(=O)N[C@@H](Cc1c[nH]c2ccccc12)C(=O)N[C@H](CC(C)C)C(=O)N[C@@H](Cc1c[nH]c2ccccc12)C(=O)NCCO)C(C)C)C(C)C)C(C)C` [compound 12099] (For-VGA[dV]A[dL]V[dV]W[dV]W[dL]W[dL]W-NHCH2CH2OH), the antibacterial activity result in data set [1] is reported as “+”. In data set [2], this compound returned a cell viability/% of 85.4%. Moreover, the “H+/Na+ transport activity normalized” value in data set [3] is given as 1.05.
Take `CNC(=O)C[C@@H](NC(=O)[C@@H](NC(=O)[C@@H](CC(C)C)NC(=O)[C@H](C)NC(=O)[C@H](NC(=O)[C@H](C)NC(=O)CNC(=O)[C@@H](NC=O)C(C)C)C(C)C)C(C)C)C(=O)N[C@@H](Cc1c[nH]c2ccccc12)C(=O)N[C@@H](C(=O)N[C@@H](Cc1c[nH]c2ccccc12)C(=O)N[C@@H](C(=O)N[C@@H](Cc1c[nH]c2ccccc12)C(=O)N[C@@H](C(=O)N[C@@H](Cc1c[nH]c2ccccc12)C(=O)NCCO)C(C)C)C(C)C)C(C)C` [compound 8662] (For-VGA[dV]A[dL]V[dD](NHMe)W[dV]W[dV]W[dV]W-NHCH2CH2OH): the antibacterial activity entry in data set [1] is “-”. The compound also showed a cell viability/% in data set [2] of 61.0%. The “H+/Na+ transport activity normalized” value in data set [3] amounted to 1.08.
With `CC(C)C[C@@H](NC(=O)[C@H](Cc1c[nH]c2ccccc12)NC(=O)[C@H](NC(=O)[C@H](Cc1c[nH]c2ccccc12)NC(=O)[C@H](NC(=O)[C@H](Cc1c[nH]c2ccccc12)NC(=O)[C@H](NC(=O)[C@@H](NC(=O)[C@H](NC(=O)[C@H](C)NC(=O)[C@H](NC(=O)[C@H](C)NC(=O)CNC(=O)[C@@H](NC=O)C(C)C)C(C)C)C(C)C)C(C)C)C(C)C)C(C)C)C(C)C)C(=O)N[C@@H](Cc1c[nH]c2ccccc12)C(=O)NCCO` [compound 1004] (For-VGA[dV]A[dV]V[dV]W[dV]W[dV]W[dL]W-NHCH2CH2OH), in data set [1], the antibacterial activity entry is “+”. The cell viability/% in data set [2] is given as 60.4%. Further, the “H+/Na+ transport activity normalized” value in data set [3] came to 1.04.
Regarding `CNC(=O)C[C@@H](NC(=O)[C@@H](NC(=O)[C@@H](CC(C)C)NC(=O)[C@H](C)NC(=O)[C@@H](CC(C)C)NC(=O)[C@H](C)NC(=O)CNC(=O)[C@@H](NC=O)C(C)C)C(C)C)C(=O)N[C@@H](Cc1c[nH]c2ccccc12)C(=O)N[C@H](CC(C)C)C(=O)N[C@@H](Cc1c[nH]c2ccccc12)C(=O)N[C@H](CC(C)C)C(=O)N[C@@H](Cc1c[nH]c2ccccc12)C(=O)N[C@@H](C(=O)N[C@@H](Cc1c[nH]c2ccccc12)C(=O)NCCO)[C@H](C)O` [compound 5746] (For-VGA[dL]A[dL]V[dD](NHMe)W[dL]W[dL]W[dT]W-NHCH2CH2OH), the antibacterial activity entry in data set [1] is on record as “-”. In data set [2], this compound displayed a cell viability/% of 100.0%. Moreover, in data set [3], the “H+/Na+ transport activity normalized” value came out at 1.26.
For `CC(C)C[C@@H](NC(=O)[C@H](C)NC(=O)[C@H](NC(=O)[C@H](C)NC(=O)CNC(=O)[C@@H](NC=O)C(C)C)[C@H](C)O)C(=O)N[C@H](C(=O)N[C@H](CC(C)C)C(=O)N[C@@H](Cc1c[nH]c2ccccc12)C(=O)N[C@@H](C(=O)N[C@@H](Cc1c[nH]c2ccccc12)C(=O)N[C@H](CC(C)C)C(=O)N[C@@H](Cc1c[nH]c2ccccc12)C(=O)N[C@@H](C(=O)N[C@@H](Cc1c[nH]c2ccccc12)C(=O)NCCO)C(C)C)[C@H](C)O)C(C)C` [compound 4545] (For-VGA[dT]A[dL]V[dL]W[dT]W[dL]W[dV]W-NHCH2CH2OH), the antibacterial activity entry in data set [1] is “-”. This compound also came in with a cell viability/% in data set [2] of 100.0%. Also, the “H+/Na+ transport activity normalized” value in data set [3] is reported as 1.18.
